Experimental data from patent publication US20070259935A1, “CRYSTALLINE FORMS OF LETROZOLE AND PROCESSES FOR MAKING THEM” (priority 2006, published 2007).
Entries after “also recorded” stand apart in the source; their conditions may differ.

Key:
[1] = Crystal form conversion during annealing; format: physicochemical; conditions: annealing above 140° C.
[2] = Crystal form conversion on stirring in solvent; format: physicochemical
[3] = Relative stability of the crystalline forms (cooling rate observations in toluene); format: physicochemical; conditions: concluded from slow versus faster cooling in toluene and the conversion observations
Excerpt: Slow cooling a solution of letrozole in toluene gave mainly Form I, whereas faster cooling a solution in toluene gave Form II.
Indeed, due to the relative instability of Form II, the use of Form II or a mixture of Forms I and II could be liable to conversion during storage to form some or more Form I, respectively. Such a variation in crystalline form is generally undesirable in pharmaceuticals as the different forms can have different properties, e.g. bio-absorption, solubility, degradation, etc. Thus, while the use of either crystalline form in a pharmaceutical composition is contemplated, making the composition from a crystalline letrozole that has an XRPD substantially corresponding to FIG. 1 is preferred.

[4] = cited from earlier work

Row | conversion of crystalline form during annealing [1] | conversion of crystalline form when stirred in a solvent for 2 weeks ([2]; stirred in a solvent for 2 weeks) | conversion of crystalline form when stirred in various solvents ([2]; stirred in various solvents) | conversion of crystalline form when stirred in ethanol ([2]; stirred in ethanol at room temperature) | SMILES | kinetic versus thermodynamic form / relative stability [3] | solubility in dichloromethane ([4]; dichloromethane) | solubility in ethanol ([4]; ethanol) | solubility in water ([4]; water)
1 | does not convert | does not convert into Form II | does not convert |  | N#Cc1ccc(C(c2ccc(C#N)cc2)n2cncn2)cc1 [Form I, 4,4′-(H-1,2,4-Triazol-1-ylmethylene)dibenzonitrile] | thermodynamically stable form |  |  | 
2 | (partially) converted into form I |  |  | (partially) converted into Form I | N#Cc1ccc(C(c2ccc(C#N)cc2)n2cncn2)cc1 [Form II, 4,4′-(H-1,2,4-Triazol-1-ylmethylene)dibenzonitrile] | kinetic form; also recorded: generally less stable than the Form I |  |  | 
3 |  |  |  |  | N#Cc1ccc(C(c2ccc(C#N)cc2)n2cncn2)cc1 [Letrozole, 4,4′-(H-1,2,4-Triazol-1-ylmethylene)dibenzonitrile] |  | freely soluble | slightly | practically insoluble
